Data: patent US11325938B2, “CD73 inhibitors” (ORIC Pharmaceuticals, Inc., priority 2018, dated 2022)

Target: CD73 (Homo sapiens (Human), UniProt P21589)
Assay: Biochemical assay: inhibition of CD73 activity (AMP hydrolysis, Malachite Green readout)
Conditions: CD73 0.3208 nM, AMP 15 μM, 25 mM Tris-HCl pH 7.4, RT, absorbance 620 nm
Summary of the method: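 Phosphate from AMP hydrolysis (15 μM AMP, 10 min, RT) was detected by Malachite Green absorbance to give IC50s. Enzyme at 320 pM was first exposed 15 min to compounds, dosed from 100 μM in ½-log steps, in Tris pH 7.4 buffer with MgCl2, Brij-35 and BSA.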

CD73, sequence (P21589 27-574): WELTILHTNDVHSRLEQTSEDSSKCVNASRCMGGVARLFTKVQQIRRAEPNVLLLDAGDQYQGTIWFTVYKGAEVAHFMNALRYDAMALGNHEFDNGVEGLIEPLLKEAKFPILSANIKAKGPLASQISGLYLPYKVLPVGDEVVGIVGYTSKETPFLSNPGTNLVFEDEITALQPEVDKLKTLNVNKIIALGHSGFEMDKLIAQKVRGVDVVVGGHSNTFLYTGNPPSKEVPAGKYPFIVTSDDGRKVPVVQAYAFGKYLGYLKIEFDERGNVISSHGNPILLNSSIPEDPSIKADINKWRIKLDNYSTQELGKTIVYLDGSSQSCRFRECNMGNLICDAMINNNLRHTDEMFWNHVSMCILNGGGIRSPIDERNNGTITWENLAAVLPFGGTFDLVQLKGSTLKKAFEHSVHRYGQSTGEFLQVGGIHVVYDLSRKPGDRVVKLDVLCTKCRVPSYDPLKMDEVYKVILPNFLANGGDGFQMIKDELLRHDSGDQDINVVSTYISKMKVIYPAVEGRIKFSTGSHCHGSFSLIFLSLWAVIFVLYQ

| SMILES | IC50 [nM] |
| --- | --- |
| O=P(O)(O)C(CO)(CO)OC[C@H]1O[C@@H](n2ncc3c(NCC4CC4)nc(CO)nc32)[C@H](O)[C@@H]1O (racemic) [Example 202, rac-(2-(((2R,3S,4R,5R)-5-(4-((cyclopropylmethyl)amino)-6-(hydroxymethyl)-1H-pyrazolo[3,4-d]pyrimidin-1-yl)-3,4-dihydroxytetrahydrofuran-2-yl)methoxy)-1,3-dihydroxypropan-2-yl)phosphonic acid] | ≤ 100 |
| O=P(O)(O)[C@@H](CO)OC[C@H]1O[C@@H](n2nnc3c(NC4CCCC4)cc(Cl)nc32)[C@H](O)[C@@H]1O [Example 149, ((S)-1-(((2R,3S,4R,5R)-5-(5-chloro-7-(cyclopentylamino)-3H-[1,2,3]triazolo[4,5-b]pyridin-3-yl)-3,4-dihydroxytetrahydrofuran-2-yl)methoxy)-2-hydroxyethyl)phosphonic acid] | ≤ 100 |
| CC#CC[C@@](CO)(OC[C@H]1O[C@@H](n2ncc3c(NC4CCCC4)nc(Cl)nc32)[C@H](O)[C@@H]1O)P(=O)(O)O [Example 97, ((R)-2-(((2R,3S,4R,5R)-5-(6-chloro-4-(cyclopentylamino)-1H-pyrazolo[3,4-d]pyrimidin-1-yl)-3,4-dihydroxytetrahydrofuran-2-yl)methoxy)-1-hydroxyhex-4-yn-2-yl)phosphonic acid] | ≤ 100 |
| O=C(O)c1cccc(CC(CO)(OC[C@H]2O[C@@H](n3ncc4c(NC5CCCC5)nc(Cl)nc43)[C@H](O)[C@@H]2O)P(=O)(O)O)c1 (mixture of isomers) [Example 190, rac-3-(2-(((2R,3S,4R,5R)-5-(6-chloro-4-(cyclopentylamino)-1H-pyrazolo[3,4-d]pyrimidin-1-yl)-3,4-dihydroxytetrahydrofuran-2-yl)methoxy)-3-hydroxy-2-phosphonopropyl)benzoic acid] | ≤ 100 |
| CC(CO)(OC[C@H]1O[C@@H](n2ncc3c(NC4CCCC4)nc(CCCO)nc32)[C@H](O)[C@@H]1O)P(=O)(O)O (stereo partly drawn) [Example 88, 2-(((2R,3S,4R,5R)-5-(4-(Cyclopentylamino)-6-(3-hydroxypropyl)-1H-pyrazolo[3,4-d]pyrimidin-1-yl)-3,4-dihydroxytetrahydrofuran-2-yl)methoxy)-1-hydroxypropan-2-ylphosphonic acid] | ≤ 100 |
| C[C@](CO)(OC[C@H]1O[C@@H](n2ncc3c(NC4CCCC4)nc(C#CCO)nc32)[C@H](O)[C@@H]1O)P(=O)(O)O (racemic) [Example 199, rac-((R)-2-(((2S,3R,4S,5S)-5-(4-(cyclopentylamino)-6-(3-hydroxyprop-1-yn-1 yl)-1H-pyrazolo[3,4-d]pyrimidin-1-yl)-3,4-dihydroxytetrahydrofuran-2-yl)methoxy)-1-hydroxypropan-2-yl)phosphonic acid] | ≤ 100 |

Other lines, results leading:

| IC50 [nM] | SMILES |
| --- | --- |
| ≤ 100 | O=P(O)(O)CS(=O)(=O)C[C@H]1O[C@@H](n2ncc3c(NC4CCCC4)cc(Cl)nc32)[C@H](O)[C@@H]1O [Example 162, (((((2S,3S,4R,5R)-5-(6-chloro-4-(cyclopentylamino)-1H-pyrazolo[3,4-b]pyridin-1-yl)-3,4-dihydroxytetrahydrofuran-2-yl)methyl)sulfonyl)methyl)phosphonic acid] |
| ≤ 100 | C[C@](CO)(OC[C@H]1O[C@@H](n2ncc3c(N[C@@H]4CCc5cc(F)ccc54)nc(Cl)nc32)[C@H](O)[C@@H]1O)P(=O)(O)O [Example 121, ((S)-2-(((2R,3S,4R,5R)-5-(6-chloro-4-(((R)-5-fluoro-2,3-dihydro-1H-inden-1-yl)amino)-1H-pyrazolo[3,4-d]pyrimidin-1-yl)-3,4-dihydroxytetrahydrofuran-2-yl)methoxy)-1-hydroxypropan-2-yl)phosphonic acid] |
| ≤ 100 | CCOC(=O)C(OC[C@H]1O[C@@H](n2ncc3c(NC4CCCC4)nc(Cl)nc32)[C@H](O)[C@@H]1O)P(=O)(O)O (stereo partly drawn) [Example 1, (1-(((2R,3S,4R,5R)-5-(6-Chloro-4-(cyclopentylamino)-1H-pyrazolo[3,4-d]pyrimidin-1-yl)-3,4-dihydroxytetrahydrofuran-2-yl)methoxy)-2-ethoxy-2-oxoethyl)phosphonic acid] |
